Assay results published in publication PMC11187126, “Structure and dynamics of the pyroglutamylated RF-amide peptide QRFP receptor GPR103” (Nature Communications, 2024).
No end group written: not given here.

Target: T1, GPR103 I26N-termA (Homo sapiens, UniProt Q96P65, I26A)
T1 construct: we used human full-length QRFPR-encoding plasmids; expressed in transfected cells; host or cells: HEK293 cells, pCAGGS vector
T1 sequence (Q96P65 1-431 I26A): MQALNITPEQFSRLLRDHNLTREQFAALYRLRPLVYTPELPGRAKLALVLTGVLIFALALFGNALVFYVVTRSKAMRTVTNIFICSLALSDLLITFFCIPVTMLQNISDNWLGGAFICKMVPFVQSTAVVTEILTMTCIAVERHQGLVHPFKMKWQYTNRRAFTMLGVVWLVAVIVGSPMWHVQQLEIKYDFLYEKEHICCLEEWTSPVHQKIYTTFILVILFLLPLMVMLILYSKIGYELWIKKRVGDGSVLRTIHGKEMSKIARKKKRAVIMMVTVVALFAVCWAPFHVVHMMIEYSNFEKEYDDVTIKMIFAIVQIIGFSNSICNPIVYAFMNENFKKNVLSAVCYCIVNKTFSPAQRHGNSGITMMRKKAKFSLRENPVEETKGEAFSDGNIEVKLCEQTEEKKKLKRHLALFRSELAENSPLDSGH
Experiment: TGFα shedding assay; Exp. level WT (1:20)
Format: cell-based
Description: For the TGFα shedding assay and the flow cytometry analysis, we used human full-length QRFPR-encoding plasmids. Specifically, GPR103 was N-terminally modified with an HA signal sequence followed by a FLAG epitope and then a flexible linker ([…]; the FLAG epitope is underlined) and inserted into the pCAGGS vector. Plasmid encoding GPR103 mutants were generated using Quickchange Site-Directed Mutagensis kit (Agilent).
The TGFα shedding assay was performed as described previously with minor modifications. Plasmid transfection was performed in a 6-well plate with a mixture of 500 ng (per well in a 6-well plate) AP-TGFα-encoding plasmid and 200 ng GPR103-encoding plasmid. After 1-day culture, the transfected cells were harvested by trypsinization, pelleted by centrifugation at 190 × g for 5 min, and washed once with 5 mM HEPES (pH 7.4)-containing Hank’s Balanced Salt Solution (HBSS). After centrifugation, the cells were resuspended in 8 mL of the HEPES-containing HBSS. The cell suspension was seeded in a 96-well culture plate (cell plate) at a volume of 90 μL (per well hereafter) and incubated in a 37 °C incubator with 5% CO2 for 30 min. […] After spinning the cell plates at 190 × g for 2 min, 80 μL of conditioned media was transferred to an empty 96-well plate (conditioned media (CM) plate). Then, 80 μL of AP reaction solution (10 mM p-nitrophenylphosphate (p-NPP), 120 mM Tris-HCl (pH 9.5), 40 mM NaCl, and 10 mM MgCl2) was dispensed into the cell plates and the CM plates. Absorbance at 405 nm of the plates was measured using a microplate reader (SpectraMax 340 PC384, Molecular Devices) before and after 1-h incubation at room temperature. Ligand-induced AP-TGFα release was calculated by subtracting spontaneous AP-TGFα release signal from ligand-induced AP-TGFα release signal. The AP-TGFα release signals were fitted to a four-parameter sigmoidal concentration–response curve, using the Prism 10 software (GraphPad Prism). For each replicate experiment, the pEC50 parameter (negative logarithmic values of EC50 values) of the individual GPR103 mutants were normalized to that of the wild-type GPR103 performed in parallel, and resulting ∆pEC50 values were used to denote ligand response activity of the mutants. […]
Exp. le vel: WT (1:5 0)Exp. le vel: WT (1:5 0)Exp. le vel: WT (1:5 0)Exp. le vel: WT (1:2 0)Exp. le vel: WT (1:2 0)Exp. le vel: WT (1:1 0) […]
L1 4N - t e r mA F2 5N - t e r mA I 2 6N - t e r mA Y 2 9N - t e r mA C 9 82 .5 7A T10 22 .6 1A Exp . l eve l: WT (1 :5)Exp . l evel : >WT (1 :1)Exp. le vel: WT (1:2 0)Exp. le vel: WT (1:2 0)Exp. le vel: WT (1:5 0)Exp . l eve l: WT (1 :1) […]
Exp. le vel: WT (1:1 0)Exp. le vel: WT (1:2 0) C 1 1 83 .2 5AExp. le vel: WT (1:5 0)Exp. le vel: WT (1:5 0)Exp. le vel: WT (1:2 0)Exp . l eve l: WT (1 :5) […]
Exp. le vel: WT (1:5 0)Exp. le vel: WT (1:1 0)Exp. le vel: WT (1:5 0) E203ECL2AExp . l evel : >WT (1 :1)Exp. le vel: WT (1:5 0)Exp. le vel: WT (1:5 0) […]
Exp . l eve l: WT (1 :1) F28Exp. le vel: WT (1:5 0) C 2 8 56 .4 7AExp. le vel: WT (1:2 0) WExp. le vel: WT (1:2 0) F28Exp. le vel: WT (1:5 0)Exp . l evel : >WT (1 :1) […]
Exp. le vel: WT (1:5 0)Exp. le vel: WT (1:5 0) C 3 2 77 .4 8AExp . l eve l: WT (1 :5)Exp . l evel : >WT (1 :1)Exp . l evel : >WT (1 :1) […]
Suppl eme nt ary Figure 1 | Mutational analysis of GPR103. […]
mutants. Data are presented as mean values ± SEM, normally n=3-5; dots), each performed in triplicate. b-d Cell-surface expression (b) and QRFP26-in-duced activation of GPR103 (c, d) were analyzed by the flow cytometry and the TGFα shedding assay, respectively. From the concentration–response curves (a), Emax (c) and ΔpEC50 (d) values relative to the wild type were calculated. Colors in the mutant bars indicate an expression level matching to that of titrated wild type. Statistical analyses were performed using the ordinary one-way ANOVA followed by Dunnett tests with the expression-matched […]

**Q.** For TSGPLGNLAEELNGYSRKKGGFSFRF-NH2 [QRFP26], which Emax (mean) is on record?
**A.** Its Emax is 95.1%.

**Q.** And the EC50 (n = 3)?
**A.** The EC50 was 0.0437 µM.

**Q.** And the Emax (n = 3)?
**A.** Its Emax is 97.6 ± 5%.
